{"source": "paper PMC6333288", "about": "“The crystal structure of the N-acetylglucosamine 2-epimerase from Nostoc sp. KVJ10 reveals the true dimer” (Acta Crystallographica. Section D, Structural Biology, 2019)", "key": {"nAGE10": {"target": "T1, nAGE10 (Nostoc sp. KVJ10, UniProt A0A452CSU8)", "T1 construct": "synthetic codon-optimised gene, C-terminal hexahistidine tag (no cleavage described), expressed in E. coli BL21 Star (DE3); dimer by gel filtration; residues Tyr3-Leu391 resolved, 157-164 missing", "T1 sequence (A0A452CSU8 entry or part of it)": "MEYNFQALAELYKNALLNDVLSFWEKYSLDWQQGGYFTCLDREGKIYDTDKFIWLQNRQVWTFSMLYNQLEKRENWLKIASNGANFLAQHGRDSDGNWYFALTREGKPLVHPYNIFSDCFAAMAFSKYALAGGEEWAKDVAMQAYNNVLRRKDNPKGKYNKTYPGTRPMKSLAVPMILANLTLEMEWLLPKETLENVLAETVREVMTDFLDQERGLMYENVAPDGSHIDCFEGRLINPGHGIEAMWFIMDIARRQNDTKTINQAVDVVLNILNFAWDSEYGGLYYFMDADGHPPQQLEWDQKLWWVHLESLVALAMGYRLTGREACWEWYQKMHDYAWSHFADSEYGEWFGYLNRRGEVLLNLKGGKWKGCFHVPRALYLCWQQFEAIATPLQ", "experiment": "coupled AGE/NAL (AsNAL) reaction, Neu5Ac by thiobarbituric acid assay", "type": "biochemical", "conditions": "HEPES pH 8.0, 25 °C, 1 h"}, "[1]": {"target": "N-acetylglucosamine 2-epimerase from Nostoc sp. KVJ10 (Nostoc sp. KVJ10)", "experiment": "SEC; gel-filtration chromatography on a Superdex 75 10/300 GL column; oligomerization state of purified nAGE10"}}, "data": [{"molecule": "Nc1ncnc2c1ncn2[C@@H]1O[C@H](COP(=O)(O)OP(=O)(O)OP(=O)(O)O)[C@@H](O)[C@H]1O", "note": "[ATP]", "values": [{"measurement": "coupled AGE/NAL (AsNAL) reaction, Neu5Ac by thiobarbituric acid assay", "setting": "nAGE10; 10 mM ATP present versus absent, GlcNAc 15 mM, pyruvate 15 mM, allosteric activator", "result": "In the absence of ATP, only a fraction of Neu5Ac could be synthetized from GlcNAc"}]}, {"molecule": "CC(=O)N[C@H]1C(O)O[C@H](CO)[C@@H](O)[C@@H]1O", "note": "(stereo partly drawn) [GlcNAc]", "values": [{"measurement": "coupled AGE/NAL (AsNAL) reaction, Neu5Ac by thiobarbituric acid assay", "setting": "nAGE10; 15 mM GlcNAc, 10 mM ATP, 15 mM pyruvate", "result": "The results show that the synthesis of Neu5Ac from GlcNAc is possible"}]}, {"molecule": "N-acetylglucosamine 2-epimerase from Nostoc sp. KVJ10 (enzyme)", "values": [{"measurement": "stoichiometry N", "setting": "[1]", "result": 2}]}]}
